Data on ten molecules can be found in US5696276A, “Process for preparing 5,8-dihydroxynaphthoquinone derivatives, novel 5,8-dihydroxynaphthoquinone derivatives and their use as anticancer agent” (Kuhnil Pharmaceutical Co., Ltd., priority 1993, dated 1997).

Experiment [1] deals with A549 cancer cells. Put plainly: Cytotoxic activity against A549 cancer cells (sulforhodamin B method). Format: cell-based. To be noted: Homo sapiens; A549 cells, SRB method, 48 hours; read-out: ED50, cytotoxic activity against A549. Here is the method: The cytotoxic activity against A549 cancer cells was determined using a method for measuring sulforhodamin B (SRB), which was developed in the year 1989 by NIC for measuring anticancer activity of the drug in vitro. For the experiment, cells under subculturing were separated from the attached surface with trypsin-CDTA solution and then dispensed into a 24-well flat-bottom microplate (Falcon) so that the number of cells per well is 8×10^4 (A549). The microplate was incubated in a CO2 incubator for 24 hours to attach the dispensed cells to bottom. The medium was removed with aspirator. Then, 100 μl of the solution of the test compounds diluted in a log-dose of 6 kinds of concentration was added to each well containing cells, in a multiple of 3. The microplate was incubated for further 48 hours. In addition, the diluted solution of the test compounds above was filtered through a 0.22 μm filter, before addition to the cells, to keep the experiment under sterilized condition. The cells were incubated with the test compounds for 48 hours and then the medium was removed from each well. 100 μl of 10% trichloroacetic acid (TCA) was added to each well and then the plate was allowed to stand at 4° C. for one hour to fix the cells to the bottom of plate. After fixing the cells, the plate was washed 5 to 6 times with water to completely remove any remaining TCA solution and then dried at room temperature until water is no longer present. To the completely dried plate was added the dying solution of 0.4% SRB dissolved in 1% acetic acid in an amount of 250 μl per well to stain the cells for 30 minutes and then the plate was washed again 5 to 6 times with 1% acetic acid solution to remove the remaining SRB which is not bound to the cells. The stained cell plate was dried again at room temperature. Then, the dying solution was carefully dissolved in a certain amount of 10 mM Tris so that the O.D. value in the control group at 520 nm is 0.8-1.0 Å (optical density), and the optical density at 520nm was determined. The ED50 value was obtained from the determined optical density. To calculate the activity of the drug against cancer cells, the number of cells (Tz) at the beginning of the addition of drug, the number of cells (C) after incubation with the medium in the absence of drug for 48 hours and the number of cells (T) after incubation in the presence of drugs at each concentration for 48 hours were determined.
The anticancer activity of the test compounds was determined form the following equations. Specifically, in the […] the equation (T-Tz)/(C-Tz)×100 was used and in the case of Tz<T the equation (T-Tz)/Tz×100 was used. Then the IC50 value wich is the concentration of drug which inhibits the growth of cancer cells by 50% was calcualted from the above calculated values using a data regressive function of LOTUS programme and the cytotoxic activities of the test compounds were compared with each other.

The test system of experiment [2] is S-180 sarcoma cells. Kind of experiment: Animal experiment using Sarcoma S-180 cells (survival of mouse). Format: in vivo, male ICR mouse. To be noted: ip, S-180 ICR mouse, intraperitoneal, 7 to 8 injections; for responders at 10 µmol/kg / response vs control in vivo at 10 µmol/kg: daily dose 10 μmole (mg/kg/day given per compound); for responders at 15 µmol/kg / response vs control in vivo at 15 µmol/kg: daily dose 15 μmole (mg/kg/day given per compound). Here is the method:
In this experiment, healthy male ICR mouse weighing 20 to 25 g were used as test animal and were fed with water and feed without any restriction in the chamber controlled at the temperature of 23° to 24° C. As the feed, the antibiotic-free feed for mouse was used.
S-180 cells which were incubated for 7 days within abdominal cavity of ICR mouse were separated together with ascites. To the separated cells was added sterilized cold physiological saline and the mixture was centrifuged with 400×g for 2 minutes to separate the cell precipitate. The separated cell precipitate was suspended again in sterilized cold physiological saline and then centrifuged to remove the supernatant. Only S-180 cells were taken, excluding any red bllod cells incorporated therein, washed three times with the same method as above, and then suspended to obtain the cell suspension in concentration of 10^7 cells/ml by counting the number of cells with a haemacytometer. Each 0.1 ml of this cell suspension was transplanted in an abdominal cavity.
After 24 hours from the transplantation, mouse were divided so that each group contains 8 to 9 mouse. The test sample was dissolved in a predetermined amount of dimethylsulfoxide to prepare the stock solution which was stored at 4° C. 30 μl of the stock solution was taken and then mixed with 1.5 ml of physiological saline. 0.1 ml of this mixture was intraperitoneally injected to the test animal. To the control group, 2% dimethylsulfoxide-physiological saline solution was injected. Meanwhile, doxorubicin which is used as the comparative drug was dissolved in 2% dimethylsulfoxide-physiological saline solution and then injected in an amount of 0.5 mg(titer)/kg. The schedule for injection comprises a total of 7 to 8 injections in the manner that after the transplantation of cancer cells 0.1 ml of the test sample per a day is administered for 2 to 4 days followed by the rest for one day. The survival rate was calculated on the basis of the date on which all of one control group is died (approximately 18 to 20 days). The survival rate (T/C, %) was calculated by the following equation as proposed in NIC's protocol: [formula]

Experiment [3] concerns L1210 cells. Put plainly: Cytotoxic activity against L1210 cells. In kind it is cell-based. To be noted: Mus musculus; L1210 cells, 48 hours, 37° C.; read-out: ED50, cytotoxic activity against L1210. Here is the method:
To obtain L1210 cells in a logarithmic phase for cytotoxic activity test, in a 250 ml Erlenmeyer flask with a screw cap including Fisher medium warmed to 36° to 37° C. L1210 cells were adjusted to a concentration of 2-3×10^5 cells/ml and then cultured, before 24 hours from the beginning of experiment. Then, the culture solution thus obtained was suspended to prepare a L1210 cell suspension having a concentration of about 0.8-1.0×10^6 cells/ml. Test sample was dissoved in ethanol or dimethylsulfoxide in a certain concentration just before the experiment. 0.1 ml of the sample solution was diluted 10 times with 0.9 ml of a fresh medium. To each screw-capped test tube were added 100, 50, 25 μl, respectively, of the sample dilutions and then added 5 ml of the cell suspension (5×10^4 cells/ml) prepared above to use as the test group. To the test tubes for the control group (2√n: n=number of the samples), only 5 ml of the cell suspension was added. All test tubes were cultured for 48 hours in a CO2 incubator at 37° C. and then the number of cells was counted using a haemacytometer.
(§1) The ED50 value is defined as a concentration (μg/ml) of the sample which inhibits the growth of cancer cells by 50% of the control group and determined according to a method described in NIC's mannual (NIC=National Cancer Institue, U.S.A.). The growth rate Y(%) of cells in the presence of the test sample in each concentration was calculated according to the followign equation: […]
(§2) In the above equation, T means the average cell number per ml in the test group after incubation for 48 hours in the presence of the test samples in each concentration, C means the average cell number per ml in the control group after incubation for 48 hours, and Co means the average cell number per ml in the control group at the beginning of incubation. The Y(%) value at each concentration and log10 value of each concentration were obtained and the regression curve was constructed according to the following equation from those obtained values. In this case, when all the Y(%) value obtained at each concentration is greater than 55% or lower than 45%, the experiment was repeatedly conducted.
(§3) To construct the regression curve Y=A+BX the values A and B were obtained using the following equation. [formula]
(§4) In the above, the value N is the number of selected points which is greater than 2 and lower than, or identical with, the number of cencentration of the test sample, Xi is log(concentration) i, and Yi is the growth ratio at (concentration)i. The value of ED50 was obtained for those obtained slope and intercept.

Experiment [4] relates to K-562 cells. Put plainly: Cytotoxic activity against K-562 cells. Format: cell-based. To be noted: Homo sapiens; K562 cells, 48 hours, 37° C.; read-out: ED50, cytotoxic activity against K562. Here is the method: As in the test for the cytotoxic activity against L1210 cells, the test samples were dissoved in ethanol or dimethylsulfoxide in a certain concentration. 0.1 ml of the sample solution was mixed with 0.9 ml of a fresh medium to prepare the dilutions. To each two test tubes having a screw cap were added 100, 50, 25 μl, respectively, of the sample dilutions by means of a micropipet. To each test tube for the test group and the control group (2√n: n=number of the samples) was added 5 ml of the dilutions of HL-60 cells and K-562 cells which were cultured and activated before 24 hours from the beginning of experiment and then diluted in a concentration of 1×10^5 cells/mi. All test tubes were cultured for 48 hours in a CO2 incubator at 37° C. and then the number of cells was counted using a haemacytometer.
as §1, §2, §3, §4

The mark [5] stands for this setting: 1200 h, read-out: Number of mouse survived for 50 days (converted).

≈ marks a conversion by molar mass, not a printed value.

Regarding `CC(C)CCC(O)C1=CC(=O)c2c(O)ccc(O)c2C1=O` (centres unmarked) [2-(1-hydroxy-4-methylpentyl)-5,8-dihydroxy-1,4-naphthoquinone, reference compound], the figures for the IC50 in experiment [1], in experiment [3] and in experiment [4] were 0.9 µg/mL (≈ 3.1 µM), 0.05 µg/mL (≈ 0.172 µM) and 0.01 µg/mL (≈ 0.0344 µM), respectively. The responders at 5 µmol/kg in experiment [2] (1200 h, daily dose 5 μmole (mg/kg/day given per compound), read-out: Number of mouse survived for 50 days (converted)) is 0%. In addition, in experiment [2] (daily dose 5 μmole (mg/kg/day given per compound), read-out: T/C), the response vs control in vivo at 5 µmol/kg is 120%.

For `COc1ccc(OC)c2c1C(=O)C=C(C(O)CCC(C)C)C2=O` (centres unmarked) [2-(1-hydroxy-4-methylpentyl)-5,8-dimethoxy-1,4-naphthoquinone], the IC50 was found to be 2.2 µg/mL (≈ 6.91 µM) in experiment [1], 0.02 µg/mL (≈ 0.0628 µM) in experiment [3] and 0.9 µg/mL (≈ 2.83 µM) in experiment [4]. Also, the responders at 10 µmol/kg in experiment [2] (setting [5]) was 0%. Also, the response vs control in vivo at 10 µmol/kg in experiment [2] (read-out: T/C) is 120%.

For `CCCCCCCCCCCCC(O)C1=CC(=O)c2c(O)ccc(O)c2C1=O` (centres unmarked) [2-(1-hydroxytridecyl)-5,8-dihydroxy-1,4-naphthoquinone], the results for the IC50 in experiment [1], in experiment [3] and in experiment [4] were 4.4 µg/mL (≈ 11.3 µM), 0.3 µg/mL (≈ 0.772 µM) and 0.4 µg/mL (≈ 1.03 µM), respectively. Besides, the responders at 10 µmol/kg in experiment [2] (setting [5]) is 0%. Moreover, the response vs control in vivo at 10 µmol/kg in experiment [2] (read-out: T/C) was 113%.

For `COC(CCC(C)C)C1=CC(=O)c2c(O)ccc(O)c2C1=O` (centres unmarked) [2-(1-methoxy-4-methylpentyl)-5,8-dihydroxy-1,4-naphthoquinone], the IC50 in experiment [1] was found to be 1.5 µg/mL (≈ 4.93 µM); in experiment [3], 0.05 µg/mL (≈ 0.164 µM); in experiment [4], 0.07 µg/mL (≈ 0.23 µM). For the same molecule, in experiment [2] (setting [5]), the responders at 10 µmol/kg was 0%. Also, the response vs control in vivo at 10 µmol/kg in experiment [2] (read-out: T/C) stood at 126%.

With `CCCCCCCC(=O)OC(CCC(C)C)C1=CC(=O)c2c(O)ccc(O)c2C1=O` (centres unmarked) [2-(1-octanoyloxy-4-methylpentyl)-5,8-dihydroxy-1,4-naphthoquinone], the results for the IC50 in experiment [1], in experiment [3] and in experiment [4] were 1.7 µg/mL (≈ 4.08 µM), 0.5 µg/mL (≈ 1.2 µM) and 0.6 µg/mL (≈ 1.44 µM), respectively. Further, the responders at 15 µmol/kg in experiment [2] (setting [5]) was 0%. Also, in experiment [2] (read-out: T/C), the response vs control in vivo at 15 µmol/kg is 131%.

Turning to `CCCCCCCC(=O)OC(CCCCC)C1=CC(=O)c2c(O)ccc(O)c2C1=O` (centres unmarked) [2-(1-octanoyloxyhexyl)-5,8-dihydroxy-1,4-naphthoquinone], the values for the IC50 in experiment [1], in experiment [3] and in experiment [4] were 2.1 µg/mL (≈ 5.04 µM), 0.2 µg/mL (≈ 0.48 µM) and 0.3 µg/mL (≈ 0.72 µM), respectively. Besides, the responders at 15 µmol/kg in experiment [2] (setting [5]) is 0%. Besides, the response vs control in vivo at 15 µmol/kg in experiment [2] (read-out: T/C) was determined as 95%.

With `CC(C)CCOC(CCC(C)C)C1=CC(=O)c2c(O)ccc(O)c2C1=O` (centres unmarked) [2-[1-(3-methylbutoxy)-4-methylpentyl]-5,8-dihydroxy-1,4-naphthoquinone], the values for the IC50 in experiment [1], in experiment [3] and in experiment [4] were 1.1 µg/mL (≈ 3.05 µM), 0.2 µg/mL (≈ 0.555 µM) and 0.09 µg/mL (≈ 0.25 µM), respectively. Besides, the responders at 15 µmol/kg in experiment [2] (setting [5]) was 0%. Besides, in experiment [2] (read-out: T/C), the response vs control in vivo at 15 µmol/kg came out at 186%.

For `CC/C=C/CC(=O)OC(CCC(C)C)C1=CC(=O)c2c(O)ccc(O)c2C1=O` (stereo not drawn) [2-[1-(3-trans-hexenoyloxy)-4-methylpentyl]-5,8-dihydroxy-1,4-naphthoquinone], the results for the IC50 in experiment [1], in experiment [3] and in experiment [4] were 2.4 µg/mL (≈ 6.21 µM), 0.05 µg/mL (≈ 0.129 µM) and 0.2 µg/mL (≈ 0.518 µM), respectively. Besides, the responders at 10 µmol/kg in experiment [2] (setting [5]) was 0%. In addition, the response vs control in vivo at 10 µmol/kg in experiment [2] (read-out: T/C) was found to be 160%.

In the case of `CC/C=C/CC(=O)OC(CCCCCCCCC)C1=CC(=O)c2c(O)ccc(O)c2C1=O` (stereo not drawn) [2-[1-(3-trans-hexenoyloxy)-decyl]-5,8-dihydroxy-1,4-naphthoquinone], the IC50 came to 7.1 µg/mL (≈ 16 µM) in experiment [1], 0.6 µg/mL (≈ 1.36 µM) in experiment [3] and 0.6 µg/mL (≈ 1.36 µM) in experiment [4]. In experiment [2] (setting [5]), the responders at 10 µmol/kg is 0%. In addition, the response vs control in vivo at 10 µmol/kg in experiment [2] (read-out: T/C) amounted to 130%.

With `CC/C=C/CC(=O)OC(CCCCC)C1=CC(=O)c2c(O)ccc(O)c2C1=O` (stereo not drawn) [2-[1-(3-trans-hexenoyloxy)-hexyl]-5,8-dihydroxy-1,4-naphthoquinone], the IC50 is 1.5 µg/mL (≈ 3.88 µM) in experiment [1], 0.2 µg/mL (≈ 0.518 µM) in experiment [3] and 0.2 µg/mL (≈ 0.518 µM) in experiment [4]. Also, the responders at 10 µmol/kg in experiment [2] (setting [5]) was 0%. Besides, the response vs control in vivo at 10 µmol/kg in experiment [2] (read-out: T/C) was found to be 105%.
